Data taken from ChEMBL document CHEMBL4665661, “Design, synthesis, and biological activity evaluation of (-)-6-O-desmethylantofine analogues as potent anti-cancer agents” (Bioorg Med Chem, 2019).
pIC50: −log10 of the molar value. Activity calls are given as the source filed them. No cut-off for these calls is given here.

Key:
MKN-45 = assay: Antiproliferative activity against human MKN-45 cells incubated for 72 hrs by MTT assay; assay type: functional, cell-based
SK-OV-3 = assay: Antiproliferative activity against human SK-OV-3 cells incubated for 72 hrs by MTT assay; assay type: functional, cell-based
[1] = Antiproliferative activity against drug-resistant human KB/VCR cells; assay type: functional, cell-based
SGC-7901 = assay: Antiproliferative activity against human SGC-7901 cells incubated for 72 hrs by MTT assay; assay type: functional, cell-based
Bel-7402 [2] = assay: Inhibition of DNA synthesis in human Bel-7402 cells assessed as Brdu positive cells at 0.1 uM measured after 1 hr by propidium iodide staining-based BrdU incorporation assay (reference value: 29.8%); assay type: functional; parameters: scale not given: the % may be the effect or the level left; settings: time 30 min, 0.5 h
Bel-7402 [3] = assay: Induction of apoptosis in human Bel-7402 cells assessed as late apoptotic cells at 1 uM after 72 hrs by FITC-annexin V/propidium iodide-double staining based flow cytometry (reference value: 3.06%); assay type: functional
Bel-7402 [4] = assay: Induction of apoptosis in human Bel-7402 cells assessed as late apoptotic cells at 0.01 uM after 72 hrs by FITC-annexin V/propidium iodide-double staining based flow cytometry (reference value: 3.06%); assay type: functional
MCF7 = assay: Antiproliferative activity against human MCF7 cells incubated for 72 hrs by MTT assay; assay type: functional, cell-based
K562/Adr = assay: Antiproliferative activity against drug- resistant human K562/ADR cells; assay type: functional, cell-based
Bel-7402 [5] = assay: Induction of apoptosis in human Bel-7402 cells assessed as necrotic cells at 0.1 uM after 72 hrs by FITC-annexin V/propidium iodide-double staining based flow cytometry (reference value: 2.86%); assay type: functional
Bel-7402 [6] = assay: Effect on DNA damage marker protein level in human Bel-7402 cells assessed as phosphorylation of CHK2 at Thr68[…] at 100 fold antiproliferative IC50 after 1 hr by Western blot analysis; assay type: functional, cell-based
Bel-7402 [7] = assay: Antiproliferative activity against human Bel-7402 cells after 72 hrs by SRB assay; assay type: functional, cell-based; settings: Bel-7402, 72 h
Bel-7402 [8] = assay: Cell cycle arrest in human Bel-7402 cells assessed as increase in cell population at S phase at 100 nM by RNase A/propidium iodide staining-based flow cytometric analysis (reference value: 26.3%); assay type: functional
KB [9] = assay: Cell cycle arrest in human KB cells assessed as inhibition of DNA synthesis by measuring increase in cell population at S phase at 1 to 10 nM upto 12 hrs by RNase A/propidium iodide staining-based flow cytometric analysis; assay type: functional; settings: dose nM 1-10, time hrs <=12
Bel-7402 [10] = assay: Antiproliferative activity against human Bel-7402 cells incubated for 72 hrs by MTT assay; assay type: functional, cell-based
KB [11] = assay: Antiproliferative activity against human KB cells incubated for 72 hrs by MTT assay; assay type: functional, cell-based
K562 [12] = assay: Cell cycle arrest in human K562 cells assessed as inhibition of DNA synthesis by measuring increase in cell population at S phase at 1 to 100 nM upto 24 hrs by RNase A/propidium iodide staining-based flow cytometric analysis; assay type: functional; settings: dose nM 1-100, time hrs <=24
SK-HEP1 = assay: Antiproliferative activity against human SK-HEP 1 cells incubated for 72 hrs by MTT assay; assay type: functional, cell-based
A549 = assay: Antiproliferative activity against human A549 cells incubated for 72 hrs by MTT assay; assay type: functional, cell-based
Zip177 = assay: Cell cycle arrest in human Zip177 cells assessed as inhibition of DNA synthesis by measuring increase in cell population at S phase at 20 to 200 nM after 24 hrs by RNase A/propidium iodide staining-based flow cytometric analysis; assay type: functional
Bel-7402 [13] = assay: Inhibition of colony formation in human Bel-7402 cells upto 1 uM incubated for 24 hrs measured after 12 days by 2D colony formation assay; assay type: functional, cell-based; settings: time 12.0 day
K562 [14] = assay: Antiproliferative activity against human K562 cells; assay type: functional, cell-based
SMMC-7721 = assay: Antiproliferative activity against human SMMC-7721 cells incubated for 72 hrs by MTT assay; assay type: functional, cell-based
BXPC-3 = assay: Antiproliferative activity against human BxPC-3 cells incubated for 72 hrs by MTT assay; assay type: functional, cell-based
HCT-116 = assay: Antiproliferative activity against human HCT-116 cells incubated for 72 hrs by MTT assay; assay type: functional, cell-based
Bel-7402 [15] = assay: Cell cycle arrest in human Bel-7402 cells assessed as increase in cell population at S phase at 33 nM by RNase A/propidium iodide staining-based flow cytometric analysis (reference value: 26.3%); assay type: functional

For `COc1cc2c3c(c4ccc(OCC#N)cc4c2cc1OC)CN1CCC[C@@H]1C3`, the inhibition (MKN-45) was “Active”, the inhibition (SK-OV-3) was “Active” and the pIC50 [1] was 6.22. For the same compound, the inhibition (SGC-7901) was “Active”, the Activity (Bel-7402 [2]) was 13% and the Activity (Bel-7402 [3]) was 15.5%. The Activity (Bel-7402 [4]) was 1.55%, the inhibition (MCF7) was “Active” and the pIC50 (K562/Adr) was 7.80. For the same compound, the Activity (Bel-7402 [5]) was 3.09%, the Activity (Bel-7402 [6]) was “inactive” and the pIC50 (Bel-7402 [7]) was 7.92. The Activity (Bel-7402 [8]) was 41.3%, the Activity (KB [9]) was “Active” and the inhibition (Bel-7402 [10]) was “Active”. The inhibition (KB [11]) was “Active”, the Activity (K562 [12]) was “Active” and the inhibition (SK-HEP1) was “Active”. For the same compound, the inhibition (A549) was “Active”, the Activity (Zip177) was “Active” and the inhibition (Bel-7402 [13]) was “Active”. The pIC50 (K562 [14]) was 7.87, the inhibition (SMMC-7721) was “Active” and the inhibition (BXPC-3) was “Active”. For the same compound, the inhibition (HCT-116) was “Active” and the Activity (Bel-7402 [15]) was 34%.
